# Structures can show the parent of a compound that is named as a salt. Where two headings read alike, the source gives them in different places.
# Columns and labels:
# [1] = tested on: Immature Sprague-Dawley rats (female, 18 days old); experiment: Rat Uterotrophic/Antiuterotrophic Bioassay (uterine wet weight); type: in vivo; settings: for uterine wet weight, 1 uG 17_-estradiol: 1 uG daily ip; for uterine wet weight, 10uG: 10 uG compound daily ip; for uterine wet weight, 100uG: 100 uG compound daily ip
# Ishikawa cells = experiment: Ishikawa Cell Alkaline Phosphatase Assay; type: cell-based, human; settings: for % Activation: compound alone, percent of response related to 1 nM 17_estradiol; for EC50: Homo sapiens, Ishikawa, cells treated for 48 h
# Experimental: Ishikawa cells were maintained in DMEM/F12 (50%:50%) containing phenol red + 10% fetal bovine serum and the medium was supplemented with 2 mM Glutamax, 1% Pen/Strap and 1 mM sodium pyruvate. Five days prior to the beginning of each experiment (treatment of cells) the medium was changed to phenol red-free DMEM/F12 + 10% dextran coated charcoal stripped serum. […] Sample population for at each dose was n=8.
# 50_L of lysis buffer (0.1 M Tris-HCl, pH 9.8, 0.2% Triton X-100) is added to each well. […] Plates are thawed at 37°C followed by the addition of 150_L of 0.1 M Tris-HCl, pH 9.8, containing 4 mM para-nitrophenylphosphate (pNPP) to each well (final concentration, 3 mM pNPP). Absorbance and slope calculations were made using the KineticCalc Application program (Bio-Tek Instruments, Inc., Winooski, VT). Results are expressed as the mean +/- S.D. of the rate of enzyme reaction (slope) averaged over the linear portion of the kinetic reaction curve (optical density readings every 5 minutes for 30 minutes absorbance reading).
# TACE = molecular target: T1, TACE (Homo sapiens, UniProt P78536); experiment: Procedure for Measuring TACE Inhibition (fluorescent peptidyl substrate); type: biochemical; settings: read-out: TACE % inhibition at 1 micromolar; 1 micromolar compound
# T1 construct: purchased Immunex
# T1 sequence (P78536 215-824): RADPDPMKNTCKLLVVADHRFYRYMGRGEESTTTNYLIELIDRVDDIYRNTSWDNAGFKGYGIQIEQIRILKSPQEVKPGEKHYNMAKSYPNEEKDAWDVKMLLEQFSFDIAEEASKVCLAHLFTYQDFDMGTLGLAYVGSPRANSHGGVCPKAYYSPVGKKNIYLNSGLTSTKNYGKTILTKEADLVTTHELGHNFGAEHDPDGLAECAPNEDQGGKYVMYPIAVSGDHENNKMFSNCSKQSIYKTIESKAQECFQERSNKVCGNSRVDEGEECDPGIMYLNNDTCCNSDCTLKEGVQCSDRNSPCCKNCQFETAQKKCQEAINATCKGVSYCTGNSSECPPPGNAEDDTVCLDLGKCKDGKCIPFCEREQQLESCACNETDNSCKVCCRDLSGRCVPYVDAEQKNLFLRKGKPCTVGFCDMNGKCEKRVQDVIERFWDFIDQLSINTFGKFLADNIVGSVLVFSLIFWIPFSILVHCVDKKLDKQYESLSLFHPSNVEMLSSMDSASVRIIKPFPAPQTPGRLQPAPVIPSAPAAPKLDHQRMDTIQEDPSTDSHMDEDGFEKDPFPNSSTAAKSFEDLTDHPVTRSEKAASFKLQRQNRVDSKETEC
# Experimental: Using 96-well black microtiter plates, each well receives a solution composed of 10 µL TACE (Immunex, final concentration 1µg/mL), 70µL Tris buffer, pH 7.4 containing 10% glycerol (final concentration 10 mM), and 10 µL of test compound solution in DMSO (final concentration 1µM, DMSO concentration <1%) and incubated for 10 minutes at room temperature. […] The reaction is read (excitation 340 nm, emission 420 nm) for 10 min. and the increase in fluorescence over time is plotted as a linear line. The slope of the line is calculated and represents the reaction rate. The linearity of the reaction rate is confirmed (r^2 >0.85). The mean (x±sem) of the control rate is calculated and compared for statistical significance (p<0.05) with drug-treated rates using Dunnett's multiple comparison test. […]
# The reaction is read (excitation 340 nm, emission 420 nm) for 10 min. and the increase in fluorescence over time is plotted as a linear line. The slope of the line is calculated and represents the reaction rate.
# The linearity of the reaction rate is confirmed (r^2 >0.85). The mean (x±sem) of the control rate is calculated and compared for statistical significance (p<0.05) with drug-treated rates using Dunnett's multiple comparison test.
compound,measurement,setting,value
C[C@]12CC[C@@H]3c4ccc(O)cc4CC[C@H]3[C@@H]1CC[C@@H]2O [17_-estradiol],"uterine wet weight, 1 uG 17_-estradiol",[1]; control = 30.7 mg,1 uG 17_-estradiol = 63.2 mg
same,"uterine wet weight, 1 uG 17_-estradiol",[1]; control = 42.7 mg,1 uG 17_-estradiol = 98.2 mg
"Cc1c(-c2ccc(O)cc2)n(Cc2ccc(OCCN3CCCCC3)cc2)c2ccc(O)cc12 [Example 15, 2-(4-Hydroxy-phenyl)-3-methyl-1-[4-(2-piperidin-1-yl-ethoxy)-benzyl]-1H-indol-5-ol]",% Activation,Ishikawa cells; 48 h,1% activity (1% with 1 nM 17_-estradiol)
same,"uterine wet weight, 10uG",[1]; control = 30.7 mg,39.9 mg
same,"uterine wet weight, 100uG + 1uG 17 -estradiol","[1]; 100 uG compound + 1 uG 17_ estradiol daily ip (antiestrogenicity), control = 30.7 mg",24.3 mg
same,"uterine wet weight, 100uG",[1]; control = 30.7 mg,27.4 mg
COc1ccc(S(=O)(=O)C(C)(Cc2ccc(OCCN3CCCCC3)cc2)C(=O)NO)cc1 (centres unmarked) [Example 26],inhibition at 1 µM,TACE,41%
"O=C(c1ccc(OCCN2CCCCC2)cc1)c1c(-c2ccc(O)cc2)sc2cc(O)ccc12 [Raloxifene, [2-(4-hydroxyphenyl)-6-hydroxybenzo[b]thien-3-yl][4-(1-piperidinyl0ethoxy]phenyl-methanone hydrochloride]",% Activation,Ishikawa cells; 48 h,5% activity (5% with 1 nM 17_-estradiol)
same,"uterine wet weight, 10uG",[1]; control = 42.7 mg,47.5 mg
same,"uterine wet weight, 100uG",[1]; control = 42.7 mg,43.2 mg
CC/C(=C(\c1ccccc1)c1ccc(OCCN(C)C)cc1)c1ccccc1 [Tamoxifen],"uterine wet weight, 10uG",[1]; control = 42.7 mg,69.6 mg
same,"uterine wet weight, 100uG",[1]; control = 42.7 mg,71.4 mg
C[C@]12CC[C@@H]3c4ccc(O)cc4CC[C@H]3[C@@H]1C[C@@H](O)[C@@H]2O [estriol],EC50,"Ishikawa cells; read-out: ED50 values (95% C.I.), estrogenic activity by the alkaline phosphatase method, reference standards",0.13 nM
C[C@]12CC[C@@H]3c4ccc(O)cc4CC[C@H]3[C@@H]1CCC2=O [estrone],EC50,"Ishikawa cells; 48 h, read-out: ED50 values (95% C.I.), estrogenic activity by the alkaline phosphatase method, reference standards",0.36 nM

# Reference: patent publication EP1025077B1, “NOVEL ARYLOXY-ALKYL-DIALKYLAMINES” (Wyeth, priority 1997, dated 1999)
